Laboratory results from PMC3898987 (Bioorganic & Medicinal Chemistry, 2013).
Positions count from the first letter of the chain named. Several values for one entry are separate records, joined by “and”; a condition that tells them apart may be missing. Equal entries are not always repeated.

How the values were obtained:
5-HT3A receptor S163A = molecular target: T1, 5-HT3A receptor S163A (Homo sapiens, UniProt P46098, S158A); assay: FlexStation membrane potential dye functional assay, HEK293 cells; assay type: cell-based; design: expressed in transfected cells; host or cells: HEK293; details: 5-HT3A S163A
T1 sequence (P46098 24-478 S158A): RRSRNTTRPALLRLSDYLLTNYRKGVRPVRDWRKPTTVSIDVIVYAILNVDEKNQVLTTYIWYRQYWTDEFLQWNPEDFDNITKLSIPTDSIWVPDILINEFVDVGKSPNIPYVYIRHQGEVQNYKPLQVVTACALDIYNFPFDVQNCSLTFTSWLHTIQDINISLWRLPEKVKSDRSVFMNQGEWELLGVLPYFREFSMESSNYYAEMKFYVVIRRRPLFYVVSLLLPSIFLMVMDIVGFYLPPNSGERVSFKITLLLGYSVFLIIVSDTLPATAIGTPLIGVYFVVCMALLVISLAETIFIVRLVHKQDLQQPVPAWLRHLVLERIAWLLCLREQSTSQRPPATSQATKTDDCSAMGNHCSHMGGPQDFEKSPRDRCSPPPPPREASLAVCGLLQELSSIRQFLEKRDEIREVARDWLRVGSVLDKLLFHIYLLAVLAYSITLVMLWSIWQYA
Procedure: (§1) Human embryonic kidney (HEK) 293 cells were cultured on 90 mm tissue culture plates at 37 °C and 7% CO2 in a humidified atmosphere. They were grown in DMEM:F12 (Dulbecco’s Modified Eagle’s Medium/Nutrient Mix F12 (1:1)) with GlutaMAX I™ containing 10% fetal calf serum and passaged when confluent. […] For FlexStation assays, transfected cells were plated on 96-well plates and incubated 1–2 days before assay.
(§2) Fluorometric studies were undertaken using a FlexStation® (Molecular Devices, Sunnyvale, CA, USA) as previously described.[11]
(§3) Fluorescence was measured every 2 s for 200 s. […] Concentration–response and inhibition curves were obtained for each mutant, and the fluorescence values were normalized to the maximal response.

WT 5-HT3AB receptor = molecular target: T2, WT 5-HT3AB receptor (Homo sapiens, UniProt O95264+P46098); assay: as above; assay type: cell-based; design: expressed in transfected cells; host or cells: HEK293
T2 sequence (P46098 24-478): T1 sequence (P46098 24-478 S158A) with A135S
T2 sequence (O95264 22-441): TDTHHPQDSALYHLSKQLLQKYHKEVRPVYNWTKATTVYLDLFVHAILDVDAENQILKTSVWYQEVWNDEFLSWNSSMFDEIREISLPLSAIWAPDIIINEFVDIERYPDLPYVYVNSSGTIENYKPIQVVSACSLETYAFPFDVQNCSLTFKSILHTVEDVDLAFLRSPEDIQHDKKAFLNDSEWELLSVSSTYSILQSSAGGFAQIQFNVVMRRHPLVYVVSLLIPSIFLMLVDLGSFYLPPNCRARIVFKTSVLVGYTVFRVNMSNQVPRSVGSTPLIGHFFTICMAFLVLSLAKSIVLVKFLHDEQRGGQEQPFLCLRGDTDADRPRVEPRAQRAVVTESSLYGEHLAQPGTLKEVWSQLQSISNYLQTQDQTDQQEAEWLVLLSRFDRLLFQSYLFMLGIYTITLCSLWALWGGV
Procedure: as §1, §2, §3

5-HT3A receptor Y73A = molecular target: T3, 5-HT3A receptor Y73A (Homo sapiens, UniProt P46098, Y68A); assay: radioligand saturation binding, transfected HEK293 membranes; details: [3H]-palonosetron saturation, 5-HT3A Y73A, 4 °C, 24 h
T3 sequence (P46098 24-478 Y68A): T1 sequence (P46098 24-478 S158A) with Y45A, A135S
Procedure: Human embryonic kidney (HEK) 293 cells were cultured on 90 mm tissue culture plates at 37 °C and 7% CO2 in a humidified atmosphere. They were grown in DMEM:F12 (Dulbecco’s Modified Eagle’s Medium/Nutrient Mix F12 (1:1)) with GlutaMAX I™ containing 10% fetal calf serum and passaged when confluent. For radioligand binding studies, cells in 90 mm dishes were transfected at 60–70% confluency using polyethyleneimine and incubated for 3–4 days before use. For FlexStation assays, transfected cells were plated on 96-well plates and incubated 1–2 days before assay. […]
Eight-point binding assays were performed to produce saturation binding curves. […] Radioactive counts were measured using a Beckman LS6000SC liquid scintillation counter (Fullerton, California, USA).
Data were analyzed by iterative curve fitting using GraphPad Prism v5 (San Diego, CA) according to the following equation: B=Bmax[L]^n/kdn+[L]^n where B is the amount of bound radioligand, Bmax is the maximum specific binding at equilibrium, [L] is the concentration of radioligand, Kd is the equilibrium dissociation constant of the radioligand, and n is the Hill coefficient.

WT 5-HT3A receptor = molecular target: T4, WT 5-HT3A receptor (Homo sapiens, UniProt P46098); assay: FlexStation membrane potential dye functional assay, HEK293 cells; assay type: cell-based; design: expressed in transfected cells; host or cells: HEK293
T4 sequence (P46098 24-478): T1 sequence (P46098 24-478 S158A) with A135S
Procedure: as §1, §2, §3

[1] = molecular target: T5, 5-HT3AB receptor, 5-HT3B subunit F130A (Homo sapiens, UniProt O95264+P46098, F123A); assay: as above; details: 5-HT concentration-response, 5-HT3AB with 5-HT3B F130A
T5 sequence (P46098 24-478): T1 sequence (P46098 24-478 S158A) with A135S
T5 sequence (O95264 22-441 F123A): T2 sequence (O95264 22-441) with F102A
Procedure: as §1, §2, §3

[2] = inhibition of 5-HT (EC50 concentration) response, 45 min preincubation

Compound | IC50 (5-HT3A receptor S163A; [2]) [nM] | IC50 (WT 5-HT3AB receptor; [2]) [nM] | Kd (5-HT3A receptor Y73A) [nM] | IC50 (WT 5-HT3A receptor; [2]) [nM] | Hill Coefficient (5-HT3A receptor S163A; 5-HT concentration-response) | Hill Coefficient [1] | Hill Coefficient (WT 5-HT3AB receptor; 5-HT concentration-response) | Hill Coefficient (WT 5-HT3A receptor; 5-HT concentration-response)
O=C1c2cccc3c2[C@H](CCC3)CN1[C@@H]1CN2CCC1CC2 [Palonosetron] | 1.57 ± 0.12 | 0.88 ± 0.15 | 0.87 ± 0.04 | 0.83 ± 0.49 | – | – | – | –
NCCc1c[nH]c2ccc(O)cc12 [5-HT, serotonin] | – | – | – | – | 3.8 ± 0.4 | 1.4 ± 0.2 | 1.3 and 1.3 ± 0.2 | 2.3 and 2.3 ± 0.2
